The text below walks through data of patent US20190315823A1, “SMALL CATIONIC ANTI-BIOFILM AND IDR PEPTIDES” (priority 2013, published 2019).

The test system of experiment [1] is methicillin resistant Staphylococcus aureus (MRSA) biofilm. As to conditions: approximate peptide concentration […] (around 3 μg/ml); compared to untreated samples. Summed up: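 Static biofilm assay: 1/100 dilutions of overnight cultures grown in BM2 medium (pH 7, glucose, Casamino Acids) or Luria Broth with peptide added at time zero. After 22–46 h, adherent biofilm was stained with crystal violet and read at 595 nm. Some peptides were also tested on K. pneumoniae under flow in a Bioflux system.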

In experiment [2] the test system is human peripheral blood mononuclear cells (MCP-1). As to the kind of experiment: SPOT-synthesized derivative screen: production of chemokine MCP-1. The note with it: Table 12, No LPS, human PBMC, peptide at ~18-24 μM; for MCP1: background subtracted 139 (HH2 derivatives), 170 (1018 derivatives), 242 (1002 and hybrid peptides) pg/ml. It is filed as cell-based. An outline of the steps:
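PBMC from heparinized healthy-donor venous blood, Ficoll-separated, cultured at 0.75 to 1×10^6 cells/ml, 37 °C, 5% CO2, under the treatment regimens. MCP-1 in cell-free supernatants measured by capture ELISA.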

For experiment [3], the system named is LPS-stimulated human peripheral blood mononuclear cells (IL1-β). It is filed as cell-based. As to conditions: Table 12, cells stimulated with 10 ng/ml LPS; for IL1β Production: LPS alone 1313 (HH2 derivatives), 1927 (1018 derivatives), 2455 (1002 and hybrid peptides) pg/ml.

Ends that are not written are not given here.

“1018-Q5: single substituted 1018 peptide (VRLIQAVRIWRR-NH2) [Peptide 1018-Q5]”: the “% Biofilm inhibition” value in experiment [1] is given as 13%. Also, in experiment [2], the “Fold increase in MCP1 cf. untreated cells” value (shortened to “Fold increase”) is on record as 0.7 and the “MCP1” value is -54 pg/mL. Moreover, in experiment [3], the “Fold change in IL1β relative to no peptide LPS stimulated cells” value amounted to 1.03 and the “IL1β Production” value worked out at 1354 pg/mL.

As for “HH2-R12: single substituted HH2 peptide (VQLRIRVAVIRR-NH2)”, the “% Biofilm inhibition” value in experiment [1] was 80%. For the same substance, in experiment [2], the “Fold increase” value is 51 and the “MCP1” value was 8574 pg/mL. In experiment [3], the “Fold change in IL1β relative to no peptide LPS stimulated cells” value is recorded as 1.23 and the “IL1β Production” value is 1618 pg/mL.

Regarding “1002-R6: single substituted 1002 peptide (VQRWLRVWRIRK-NH2) [Peptide 1002-R6]”, the “% Biofilm inhibition” value in experiment [1] is listed as 13%. For the same substance, in experiment [2], the “Fold increase” value is recorded as 1.0 and the “MCP1” value is 1.8 pg/mL. Moreover, in experiment [3], the “Fold change in IL1β relative to no peptide LPS stimulated cells” value came out at 0.25 and the “IL1β Production” value is 605 pg/mL.

Regarding “HH2-G10: single substituted HH2 peptide (VQLRIRVAVGRA-NH2)”, the “% Biofilm inhibition” value in experiment [1] came to 58%. Moreover, in experiment [2], the “Fold increase” value is listed as 72 and the “MCP1” value was 12063 pg/mL. In experiment [3], the “Fold change in IL1β relative to no peptide LPS stimulated cells” value came to 1.06 and the “IL1β Production” value came out at 1391 pg/mL.

With “HH2-Q7: single substituted HH2 peptide (VQLRIRQAVIRA-NH2)”, the “% Biofilm inhibition” value in experiment [1] was 21%. In experiment [2], the “Fold increase” value was 3.9 and the “MCP1” value was found to be 488 pg/mL. Moreover, in experiment [3], the “Fold change in IL1β relative to no peptide LPS stimulated cells” value was 1.00 and the “IL1β Production” value turned out to be 1316 pg/mL.

On to “1002-Q10: single substituted 1002 peptide (VQRWLIVWRQRK-NH2) [Peptide 1002-Q10]”, for which the “% Biofilm inhibition” value in experiment [1] is 39%. Besides, in experiment [2], the “Fold increase” value is given as 1.3 and the “MCP1” value was 71.2 pg/mL. Also, in experiment [3], the “Fold change in IL1β relative to no peptide LPS stimulated cells” value is 0.05 and the “IL1β Production” value worked out at 127 pg/mL.

In the case of “HH2-K11: single substituted HH2 peptide (VQLRIRVAVIKA-NH2)”, the “% Biofilm inhibition” value in experiment [1] is on record as 43%. In experiment [2], the “Fold increase” value is recorded as 18 and the “MCP1” value was 2884 pg/mL. For the same substance, in experiment [3], the “Fold change in IL1β relative to no peptide LPS stimulated cells” value came to 1.21 and the “IL1β Production” value is 1593 pg/mL.

As for “1018-W2: single substituted 1018 peptide (VWLIVAVRIWRR-NH2) [Peptide 1018-W2]”, the “% Biofilm inhibition” value in experiment [1] worked out at 68%. For the same substance, in experiment [2], the “Fold increase” value is recorded as 1.5 and the “MCP1” value was determined as 83 pg/mL. Further, in experiment [3], the “Fold change in IL1β relative to no peptide LPS stimulated cells” value is listed as 0.73 and the “IL1β Production” value is 962 pg/mL.

Regarding “1018-G6: single substituted 1018 peptide (VRLIVGVRIWRR-NH2) [Peptide 1018-G6]”, the “% Biofilm inhibition” value in experiment [1] was 36%. Besides, in experiment [2], the “Fold increase” value is given as 22 and the “MCP1” value turned out to be 3560 pg/mL. Moreover, in experiment [3], the “Fold change in IL1β relative to no peptide LPS stimulated cells” value came to 0.46 and the “IL1β Production” value was determined as 598 pg/mL.

For the substance “1002-Q1: single substituted 1002 peptide (QQRWLIVWRIRK-NH2) [Peptide 1002-Q1]”, the “% Biofilm inhibition” value in experiment [1] worked out at 77%. Also, in experiment [2], the “Fold increase” value is on record as 6.9 and the “MCP1” value stood at 1423.5 pg/mL. Further, in experiment [3], the “Fold change in IL1β relative to no peptide LPS stimulated cells” value was 0.05 and the “IL1β Production” value was 127 pg/mL.

For “1002-L12: single substituted 1002 peptide (VQRWLIVWRIRL-NH2) [Peptide 1002-L12]”, the “% Biofilm inhibition” value in experiment [1] was 64%. In experiment [2], the “Fold increase” value is 4.7 and the “MCP1” value amounted to 905.7 pg/mL. Also, in experiment [3], the “Fold change in IL1β relative to no peptide LPS stimulated cells” value was determined as 0.05 and the “IL1β Production” value stood at 127 pg/mL.

For “1002-L3: single substituted 1002 peptide (VQLWLIVWRIRK-NH2) [Peptide 1002-L3]”, the “% Biofilm inhibition” value in experiment [1] is 59%. In experiment [2], the “Fold increase” value is 1.4 and the “MCP1” value was 106.3 pg/mL. Besides, in experiment [3], the “Fold change in IL1β relative to no peptide LPS stimulated cells” value is reported as 0.05 and the “IL1β Production” value came out at 127 pg/mL.

As to “HH2-R3: single substituted HH2 peptide (VQRRIRVAVIRA-NH2)”, the “% Biofilm inhibition” value in experiment [1] amounted to 0%. For the same substance, in experiment [2], the “Fold increase” value amounted to 60 and the “MCP1” value turned out to be 9987 pg/mL. In addition, in experiment [3], the “Fold change in IL1β relative to no peptide LPS stimulated cells” value turned out to be 1.33 and the “IL1β Production” value is 1746 pg/mL.

Consider “1018-V6: single substituted 1018 peptide (VRLIVVVRIWRR-NH2) [Peptide 1018-V6]”, for which the “% Biofilm inhibition” value in experiment [1] is 70%. In addition, in experiment [2], the “Fold increase” value turned out to be 1.6 and the “MCP1” value turned out to be 110 pg/mL. In experiment [3], the “Fold change in IL1β relative to no peptide LPS stimulated cells” value is 0.17 and the “IL1β Production” value came to 226 pg/mL.

Turning to “1002-Q11: single substituted 1002 peptide (VQRWLIVWRIQK-NH2) [Peptide 1002-Q11]”, in experiment [1], the “% Biofilm inhibition” value is listed as 67%. Besides, in experiment [2], the “Fold increase” value is on record as 13.5 and the “MCP1” value stood at 3022.9 pg/mL. Moreover, in experiment [3], the “Fold change in IL1β relative to no peptide LPS stimulated cells” value came out at 0.05 and the “IL1β Production” value came to 127 pg/mL.

On to “1018-R4: single substituted 1018 peptide (VRLRVAVRIWRR-NH2) [Peptide 1018-R4]”, for which the “% Biofilm inhibition” value in experiment [1] was 58%. Besides, in experiment [2], the “Fold increase” value is recorded as 0.6 and the “MCP1” value is -65 pg/mL. Moreover, in experiment [3], the “Fold change in IL1β relative to no peptide LPS stimulated cells” value was 0.47 and the “IL1β Production” value worked out at 615 pg/mL.

In the case of “1002-L9: single substituted 1002 peptide (VQRWLIVWLIRK-NH2) [Peptide 1002-L9]”, in experiment [1], the “% Biofilm inhibition” value amounted to 57%. Besides, in experiment [2], the “Fold increase” value is 1.8 and the “MCP1” value stood at 199.1 pg/mL. Also, in experiment [3], the “Fold change in IL1β relative to no peptide LPS stimulated cells” value came out at 0.05 and the “IL1β Production” value turned out to be 127 pg/mL.

Turning to “1002-K4: single substituted 1002 peptide (VQRKLIVWRIRK-NH2) [Peptide 1002-K4]”, the “% Biofilm inhibition” value in experiment [1] is 0%. For the same substance, in experiment [2], the “Fold increase” value was 1.4 and the “MCP1” value amounted to 106.3 pg/mL. For the same substance, in experiment [3], the “Fold change in IL1β relative to no peptide LPS stimulated cells” value turned out to be 0.43 and the “IL1β Production” value came to 1065 pg/mL.

Turning to “1002-K9: single substituted 1002 peptide (VQRWLIVWKIRK-NH2) [Peptide 1002-K9]”, in experiment [1], the “% Biofilm inhibition” value is on record as 50%. In experiment [2], the “Fold increase” value is 1.6 and the “MCP1” value stood at 143.9 pg/mL. Further, in experiment [3], the “Fold change in IL1β relative to no peptide LPS stimulated cells” value is on record as 0.05 and the “IL1β Production” value is 127 pg/mL.
